In the experiment the target is T1, Angiotensin-Converting Enzyme (ACE) (Homo sapiens, UniProt P12821).
T1 construct: purchased Dojindo Laboratories ACE Kit-WST A502
In words: ACE inhibition assay (Dojindo ACE Kit-WST A502). The format is biochemical. As to conditions: synthesized peptides, six concentrations 10 to 100 μg/mL; read-out: IC50 Values (μM), ACE inhibition capacity. On the procedure: Dojindo ACE Kit-WST A502 was used for testing the ACE-inhibitory activity. Principles of the kit were described in details in a previous report. Testing procedures were run strictly according to the manufacturer’s instructions using a 96-well plate, and inhibition rate was calculated based on the comparison of optical absorbance of sample-treated wells (As), control wells (Ac) and blank wells (Ab) as in the equation below. Absorbance was measured at 450 nm using microplate reader-Biotek-ELX800 (BioTek, Winooski, VT, USA): Inhibition rate (%) = [(Ac − As)/(Ac − Ab)]×100 (1)
For the peptides, six different concentrations of each peptide, ranging from 10 to 100 μg/mL, were assayed, and dose-response curves were plotted for the calculation of the IC50 values. IPP has been proven to be an ACE inhibitor [34] and thus was used as positive control (at concentrations ranging from 0.15 to 5 μg/mL).

Where a SMILES comes first, the peptide text is derived from it.

T1 sequence (P12821 30-1306, species assumed): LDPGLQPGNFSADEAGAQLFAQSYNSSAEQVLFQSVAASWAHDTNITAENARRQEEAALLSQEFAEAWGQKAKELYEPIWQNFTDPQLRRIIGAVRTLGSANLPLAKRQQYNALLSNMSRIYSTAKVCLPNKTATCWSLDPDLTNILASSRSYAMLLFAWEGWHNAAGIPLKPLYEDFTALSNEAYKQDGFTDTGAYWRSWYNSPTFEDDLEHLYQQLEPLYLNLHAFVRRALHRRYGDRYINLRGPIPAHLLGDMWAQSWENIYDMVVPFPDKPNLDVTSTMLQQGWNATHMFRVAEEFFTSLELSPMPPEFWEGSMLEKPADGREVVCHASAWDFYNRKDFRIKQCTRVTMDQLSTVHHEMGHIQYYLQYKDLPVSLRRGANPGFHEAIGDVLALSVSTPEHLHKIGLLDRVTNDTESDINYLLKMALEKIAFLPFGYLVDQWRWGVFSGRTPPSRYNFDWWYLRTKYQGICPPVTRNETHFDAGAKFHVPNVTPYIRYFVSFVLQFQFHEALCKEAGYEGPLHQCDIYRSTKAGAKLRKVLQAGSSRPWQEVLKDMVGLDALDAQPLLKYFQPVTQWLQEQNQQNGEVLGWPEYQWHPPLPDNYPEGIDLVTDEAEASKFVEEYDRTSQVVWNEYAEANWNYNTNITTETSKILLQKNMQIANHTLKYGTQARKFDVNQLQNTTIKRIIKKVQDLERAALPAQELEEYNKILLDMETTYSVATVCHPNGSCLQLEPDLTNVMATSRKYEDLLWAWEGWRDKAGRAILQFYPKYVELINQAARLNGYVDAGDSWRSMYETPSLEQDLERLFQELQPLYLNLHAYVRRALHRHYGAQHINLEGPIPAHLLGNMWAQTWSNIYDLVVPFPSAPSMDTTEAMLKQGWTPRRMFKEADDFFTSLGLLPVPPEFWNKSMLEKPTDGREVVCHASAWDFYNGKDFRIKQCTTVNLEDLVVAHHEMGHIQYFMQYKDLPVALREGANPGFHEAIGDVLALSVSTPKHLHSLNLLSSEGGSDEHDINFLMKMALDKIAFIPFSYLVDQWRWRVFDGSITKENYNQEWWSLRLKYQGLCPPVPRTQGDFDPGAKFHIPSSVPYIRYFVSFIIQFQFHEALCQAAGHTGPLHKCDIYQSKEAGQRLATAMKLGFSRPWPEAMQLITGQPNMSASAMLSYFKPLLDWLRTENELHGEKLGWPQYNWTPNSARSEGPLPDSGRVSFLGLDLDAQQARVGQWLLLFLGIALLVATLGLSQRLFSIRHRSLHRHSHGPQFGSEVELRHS

For `CC(C)C[C@H](NC(=O)[C@@H]1CCCN1C(=O)CN)C(=O)O` [Gly-Pro-Leu] (H-Gly-Pro-Leu-OH), the IC50 – broadly, the concentration that inhibits the measured activity by half – is above 500 µM.

`CC[C@H](C)[C@H](N)C(=O)N[C@@H](CCCNC(=N)N)C(=O)O` [Ile-Arg]: the IC50 worked out at 73.7 µM.

With `CC[C@H](C)[C@H](NC(=O)[C@@H](N)CO)C(=O)O` [Ser-Ile] (H-Ser-Ile-OH), the IC50 is above 200 µM.

On to `CC[C@H](C)[C@H](NC(=O)[C@H](CO)NC(=O)[C@@H](N)CC(N)=O)C(=O)O` [Asn-Ser-Ile] (H-Asn-Ser-Ile-OH), for which the IC50 was determined as 342 µM.

On to `CC[C@H](C)[C@H](N)C(=O)N1CCC[C@H]1C(=O)N[C@H](C(=O)O)[C@@H](C)O` [Ile-Pro-Thr] (H-Ile-Pro-Thr-OH), for which the IC50 is 73.1 µM.

`CC(C)[C@H](NC(=O)[C@@H](N)CCCCN)C(=O)N1CCC[C@H]1C(=O)O` [Lys-Val-Pro] (H-Lys-Val-Pro-OH): the IC50 was above 500 µM.

For the molecule `CC(C)C[C@H](NC(=O)[C@@H](N)[C@@H](C)O)C(=O)O` [Thr-Leu] (H-Thr-Leu-OH), the IC50 was above 200 µM.

As for `N[C@@H](CO)C(=O)N[C@@H](Cc1ccc(O)cc1)C(=O)O` [Ser-Tyr] (H-Ser-Tyr-OH), the IC50 is 94.7 µM.

For the molecule `CC(C)C[C@H](NC(=O)[C@@H](N)CO)C(=O)O` [Ser-Leu] (H-Ser-Leu-OH; N-terminus and C-terminus assumed), the IC50 was above 200 µM.

`CC(C)C[C@H](NC(=O)[C@H](C)N)C(=O)O` [Ala-Leu] (H-Ala-Leu-OH): the IC50 is above 200 µM.

With `C[C@H](N)C(=O)N[C@@H](Cc1ccc(O)cc1)C(=O)O` [Ala-Tyr] (H-Ala-Tyr-OH), the IC50 turned out to be 163 µM.
